Measured values: US5043335A, “Indolocarbazoles and the use thereof” (Godecke Aktiengesellschaft, priority 1989, dated 1991)

Tests used:
[1] = target: T1, cGMP-dependent protein kinase (Bos taurus, UniProt P00516); assay: cGMP-dependent protein kinase (G kinase) test, 32P-phosphate incorporation into histone; format: biochemical, bovine
T1 construct: The enzyme was obtained from bovine lung tissue and purified; from tissue; host or cells: bovine lung
T1 sequence (P00516 1-671): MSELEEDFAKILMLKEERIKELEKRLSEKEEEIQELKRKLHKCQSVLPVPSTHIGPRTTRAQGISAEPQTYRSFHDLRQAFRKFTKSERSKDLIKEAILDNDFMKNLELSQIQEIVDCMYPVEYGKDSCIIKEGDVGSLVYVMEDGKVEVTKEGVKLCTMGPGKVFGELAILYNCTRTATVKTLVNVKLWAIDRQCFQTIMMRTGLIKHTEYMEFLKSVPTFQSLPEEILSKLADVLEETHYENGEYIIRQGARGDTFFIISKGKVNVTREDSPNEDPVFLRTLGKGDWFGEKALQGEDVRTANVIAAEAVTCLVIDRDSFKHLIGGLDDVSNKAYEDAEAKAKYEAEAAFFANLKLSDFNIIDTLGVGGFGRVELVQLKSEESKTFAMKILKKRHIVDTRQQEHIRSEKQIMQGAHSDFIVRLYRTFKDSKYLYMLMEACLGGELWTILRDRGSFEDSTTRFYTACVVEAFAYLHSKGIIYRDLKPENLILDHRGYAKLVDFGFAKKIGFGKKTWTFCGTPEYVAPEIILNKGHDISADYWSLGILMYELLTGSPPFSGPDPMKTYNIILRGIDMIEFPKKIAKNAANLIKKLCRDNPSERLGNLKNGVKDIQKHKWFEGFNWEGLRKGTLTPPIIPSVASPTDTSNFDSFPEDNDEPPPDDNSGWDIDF
Method: (§1) The determination the inhibition of the cAMP- and of the cGMP-dependent protein kinase took place according to the test description below.
cGMP-dependent protein kinase: The enzyme was obtained from bovine lung tissue and purified and its activity determined via the incorporation of phosphorus 32-labeled phosphate into histone. The following components are contained in a test batch of 200 μL: 20 mM Tris-HCl (pH 7.4), 5 mM magnesium chloride, 1 mM DTT, 10 μM ATP, […], 40 μg BSA, 2% glycerol, as well as 10 μg histone II-A and possibly the substance to be investigated. […] After incubating for 5 minutes at 30° C., the reaction is stopped by the addition of 10% trichloroacetic acid and the samples then filtered off over a nitrocellulose filter. The phosphate incorporation is determined by Cerenkov counting in a scintillation counter and the percentage inhibition calculated therefrom.

protein kinase C = assay: Inhibition of protein kinase C activated with phosphatidylserine and diacylglycerol (in vitro enzyme assay); format: biochemical; details: for IC50: activated with phosphatidylserine and diacylglycerol, read-out: Inhibiton (IC50) C-Kinase
[2] = target: T2, cAMP-dependent protein kinase (catalytic subunit) (Homo sapiens, UniProt P17612); assay: cAMP-dependent protein kinase (A kinase) test, 32P-phosphate incorporation into histone; format: biochemical
T2 construct: purchased
Method: as §1
cAMP-dependent protein kinase: The measurement of the activity takes place with the commercially available catalytic subunits of the enzyme. The incorporation of phosphorus 32-labeled phosphate into histone is thereby measured. A reaction batch of 200 μL contains the following components: 50 mM PIPES-NaOH (pH 7.5), 10 mM magnesium chloride, 1 mM DTT, 40 μM ATP, as well as 50 μg histone H-2B. The test is carried out as in the case of G kinase. The reaction is thereby started by the addition of 6 units of the catalytic subunit of the cAMP-dependent protein kinase.

Compound	IC50 [1] [nM]	Ratio IC50 kinase / IC50 C-Kinase, G/C ([1]; G-kinase versus C-kinase)	IC50 (protein kinase C) [nM]	IC50 [2] [nM]	Ratio IC50 kinase / IC50 C-Kinase, A/C ([2]; A-kinase versus C-kinase)	inhibition of protein kinase C at a single concentration (protein kinase C; concentration of 10^-5 M, same conditions of the in vitro enzyme assay)
O=C1NC(=O)c2c1c1c3ccccc3n3c1c1c2c2ccccc2n1C1CCC3O1 [I, 9,10,11,12-tetrahydro-9,l2-epoxy-1H-diindolo[1,2,3-fg: 3',2',1',kl]pyrrolo[3,4-i][1,6]benzodiazocine-1,3(2H)-dione]	520	19	28	5500	196	
O=C1c2c(c3c4ccccc4n4c3c3c2c2ccccc2n3C2CCC4O2)C(=O)N1Cc1ccccc1 [III]			> 10000			does not display a significant inhibition
